This experiment has as its system balb c 3T3 fibroblasts. The experiment can be described thus: Inhibition of PDGF-stimulated balb c 3T3 fibroblast proliferation (3H-thymidine incorporation). Particulars: Mus musculus, BALB/c3T3; ^3 H-thymidine incorporation stimulated by PDGF in balb c 3T3 fibroblasts. Type of experiment: cell-based. The protocol: Measurement of inhibition of the balb c 3T3 fibroblast proliferation induced by a growth factor […]
Inhibition of the cell proliferation induced by a growth factor (for example PDGF) is evaluated by measuring the ^3 H-thymidine incorporation into balb c 3T3 fibroblasts.
The balb c 3T3 fibroblasts are cultivated at 37° C. with 5% of CO2 up to the point of subconfluence and are then placed for 24 hours under rest conditions in a serum-impoverished medium. They are subsequently pretreated for one hour with the test molecule and then stimulated for 24 hours with a growth factor (for example PDGF). ^3 H-Thymidine is incorporated over the last 2 hours. All these steps are performed at 37° C. with 5% of CO2.
The reaction is terminated by sucking off the reaction medium, detaching the cells and then filtering the lyzed cells through glass fiber filters.
The results are expressed as the percentage inhibition of the stimulation of ^3 H-thymidine incorporation due to the action of the growth factor.

By IC50 is commonly meant the concentration at which inhibition is half-maximal. Lower therefore signals inhibition by little substance. Regarding `N#CC(=Cc1cc2cccnc2n(-c2cc(Cl)cc(Cl)c2)c1=O)c1ccncc1` [Example 81, 3-[1-(3,5-dichlorophenyl)-1,2-dihydro-2-oxo-1,8-naphthyridin-3-yl]-2-(4-pyridyl)prop-2-enenitrile], the IC50 was 200 nM.

`N#CC(=Cc1cc2cccnc2n(-c2cc(Cl)cc(Cl)c2)c1=O)c1cccnc1` [Example 78, 3-[1-(3,5-dichlorophenyl)-1,2-dihydro-2-oxo-1,8-naphthyridin-3-yl]-2-(3-pyridyl)prop-2-enenitrile] gave a 50% inhibitory concentration (IC50) of 300 nM.

For the origin of these results see patent US5663181A, “Naphthyridine derivatives, their methods of preparation and pharmaceutical compositions in which they are present, useful especially as antiproliferative drugs” (Laboratoires UPSA, priority 1993, dated 1997).
